The numbers were not newly measured in patent US11612566B2, “Lamotrigine oral liquid suspension and use thereof” (OWP Pharmaceuticals, Inc., priority 2019, dated 2023), which cites them from elsewhere.

The conditions of this series: BCS class II molecule; poorly soluble in water.

Take `Nc1nnc(-c2cccc(Cl)c2Cl)c(N)n1` [Lamotrigine, 6-(2,3-dichlorophenyl)-1,2,4-triazine-3,5-diamine]: the solubility result is given as “low”.
